Assay results as given in US20160256433A1, “Formulations Containing Amorphous Dapagliflozin” (SANDOZ AG, priority 2013, published 2016).
≈ marks a conversion by molar mass, not a printed value. Like-named read-outs stand apart in the source and are kept apart here.

Columns and labels:
physchem = details: for solubility at 24 h: thermodynamic from solid
[1] = for pH of suspension after 24 hours of testing: 37° C.
[2] = for water absorbed: at 80% relative air humidity (RH)
[3] = medium of pH 1.2, 37 °C, pH 1.2, simulated gastric fluid
[4] = medium of pH 6.8, 37 °C, pH 6.8, aqueous buffer

| solubility at 24 h (physchem; [3]) [µg/mL] | solubility at 24 h (physchem; [4]) [µg/mL] | solubility at 24 h (physchem; water, 37 °C) [µg/mL] | pH of suspension after 24 hours of testing ([1]; medium pH 1.2) | pH of suspension after 24 hours of testing ([1]; medium pH 6.8) | pH of suspension after 24 hours of testing ([1]; medium water) | water absorbed [2] | Compound | also measured |
| --- | --- | --- | --- | --- | --- | --- | --- | --- |
| 1700 (≈ 4160 µM) | 1700 (≈ 4160 µM) | 1800 (≈ 4400 µM) | 1.3 | 6.8 | 3.2 | around 0.8% | CCOc1ccc(Cc2cc([C@@H]3O[C@H](CO)[C@@H](O)[C@H](O)[C@H]3O)ccc2Cl)cc1 |  |
| 1200 (≈ 2930 µM) | 1200 (≈ 2930 µM) | 1200 (≈ 2930 µM) | 1.2 | 6.7 | 7.4 | around 6% | CCOc1ccc(Cc2cc([C@@H]3OC(CO)[C@@H](O)C(O)C3O)ccc2Cl)cc1 (stereo partly drawn) [amorphous dapagliflozine, (2S,3R,4R,5S,6R)-2-[4-chloro-3-(4-ethoxybenzyl)phenyl]-6-(hydroxymethyl)tetrahydro-2H-pyran-3,4,5-triole] | solubility at 24 h (physchem; medium of pH 3.0, 37 °C, pH 3, aqueous buffer): 1100 µg/mL (≈ 2690 µM); solubility at 24 h (physchem; medium of pH 4.5, 37 °C, pH 4.5, aqueous buffer): 1200 µg/mL (≈ 2930 µM); solubility at 24 h (physchem; medium of pH 7.4, 37 °C, pH 7.4, aqueous buffer): 700 µg/mL (≈ 1710 µM); solubility (physchem; water): ~1000 µg/mL (≈ 2450 µM); Desciptive term (solubility) ([1]; medium pH 1.2): Slightly soluble; Desciptive term (solubility) ([1]; medium pH 3.0): Slightly soluble; pH of suspension after 24 hours of testing ([1]; medium pH 3.0): 2.9; Desciptive term (solubility) ([1]; medium pH 4.5): Slightly soluble; pH of suspension after 24 hours of testing ([1]; medium pH 4.5): 4.5; Desciptive term (solubility) ([1]; medium pH 6.8): Slightly soluble; Desciptive term (solubility) ([1]; medium pH 7.4): Very slightly soluble; pH of suspension after 24 hours of testing ([1]; medium pH 7.4): 7.2; Desciptive term (solubility) ([1]; medium water): Slightly soluble; water irreversibly absorbed ([2]; during the first sorption/desorption cycle): around 3% |
